Assay results as given in patent US8222297B2, “Aniline or phenol mustards linked to DNA-affinic molecules or water-soluble aromatic rings and their use as cancer therapeutic agents” (Academia Sinica, priority 2007, dated 2012).

Columns and labels:
[1] = tested on: human mammary carcinoma MX-1 xenograft; assay: Antitumor therapeutic effect in nude mice bearing MX-1 xenograft; type: in vivo; conditions: for log cell kill: estimated by Eq. 4 from remission time; for Duration complete remission maintained without relapse: one cycle 5-dose-treatment, 3 out of 3 mice
Procedure: (§1) Athymic nude mice bearing the nu/nu gene were used for human breast tumor MX-1 xenograft (FIGS. 3 and 4) and human brain glioma U87 GM xenograft (FIG. 5). Nude mice were obtained from National Cancer Institute, Frederick, Md. Male mice 6 weeks old or older weighing 22 g or more were used for experiments with subcutaneous tumor inoculation as described previously.^62 Drug was administrated via the tail vein by iv injection. Tumor volumes were assessed by measuring length×width×height (or width) by using caliper. Vehicle used was 20 μL DMSO in 180 μL saline. All animal studies were conducted in accordance with the guidelines of the U.S. National Institutes of Health Guide for the Care and Use of Animals and the protocol approved by the Institutional Animal Care and Use Committee.
(§2) Animals. Athymic nude mice bearing the nu/nu gene were obtained from NCI, Frederick, Md. and used for all human tumor xenografts. Male nude mice 6 weeks or older weighing 20-24 g or more were used. Compounds were administered via the tail vein for i.v. injection or infusion as described previously.^59 A typical formulation for chemotherapeutic studies for each drug was dissolved in DSMO to make a 25 mg/ml fresh solution, 0.4 ml of this solution was mixed with 0.3 ml of Tween 80, plus 1.3 ml to make 2 ml of 5 mg/ml solution. Bolus injection volume was 0.1-0.2 ml per mouse. Tumor volume was assessed by measuring length×width×height (or width) by using a caliper. For tumor-bearing nude mice during the course of the experiment, the body weight refers to total weight minus the weight of the tumor. All animal studies were conducted in accordance with the guidelines for the National Institute of Health Guide for the Care and Use of Animals and the protocol approved by the Institutional Animal Care and Use Committee.
The therapeutic effects of a drug against human tumor xenografts in nude mice, under the optimal therapeutic conditions but without any lethality due to drug toxicity, the following degrees of therapeutic effects are defined and calculated by the following formula:
[formula] • where T0 is the initial tumor size (in mm^3) at beginning of drug treatment; • Tc is tumor size of untreated control group on a given date; and • Tx is tumor size of the drug treated group on a given date.
[formula] • Where T0 and Tx are as specified as above. • Tumor disappearance (complete remission or CR) is defined by the effect where [Tx=0] for a period of time (in days) for a proportion of animals (NCR/N), where N is the total number of animals in the group, and NCR is the number of mice in the group that achieved CR. • Tumor relapse is quantitatively calculated by [The Day tumor relapsed(Drelp)−The Day CR achieved(DCR)] (Eq. 3) • for a proportion of animals (Nrelp/N) where N is the total number of animals in the group, and Nrelp is the number of the mice in the group that relapsed. • The log cell kill (LCK) of the tumor tissue after a given chemotherapy that reached CR is estimated by: LCK=log [2^(Tumor remission in days/Tumor doubling time in days)] (Eq. 4)

[2] = tested on: human glioma U87 GM s.c. xenograft; assay: Therapeutic effect in nude mice bearing U87 glioma xenograft; type: in vivo
Procedure: as §1
The therapeutic effects of N-mustard compounds, BO-1049, 1051 and 1055, against human glioma U87 GM s.c. xenograft in nude mice were given in FIG. 5, A and B. U87 glioma is known to be refractory tumor that can not be effectively treated with cell-cycle specific anti-tumor drugs such as taxol, epothilones, or arabinosylcytosine. However, cell-cycle non-specific drugs such as alkylating agent, cyclophosphamide or BCNU, yields better therapeutic results. […] However, upon 6 days of recession of treatment with BO-1049 or BO-1055, the tumor began to regrow.
as §2

[3] = tested on: CCRF-CEM human lymphoblastic leukemia cells; assay: In vitro cytotoxicity, XTT assay; conditions: read-out: IC50 CCRF-CEM; XTT assay, 72-hr incubation
[4] = tested on: Human mammary carcinoma (MX-1) tumor cells; assay: In vitro cytotoxicity, SRB assay; conditions: read-out: IC50 MX-1; SRB assay, 72-hr incubation
[5] = tested on: Human colon carcinoma HCT-116 cells; assay: In vitro cytotoxicity, SRB assay; conditions: read-out: IC50 HCT-116; SRB assay, 72-hr incubation
CCRF-CEM/Taxol = assay: In vitro cytotoxicity, XTT assay, taxol-resistant subline; conditions: for fold of cross-resistant, CCRF-CEM/Taxol vs IC50 of parent cell line: number in brackets; for IC50: read-out: IC50 CCRF-CEM/Taxol, XTT assay, 72-hr incubation
[6] = unpublished results of the applicant
[7] = tested on: various human leukemia and solid tumor; conditions: in vitro and in vivo; cited from earlier work
[8] = 150 mg/kg, Q2D×5, i.v.-injection

## COc1ccc2nc(C)cc(NNC(=O)Nc3ccc(N(CCCl)CCCl)cc3)c2c1
other
  melting point: 224 to 225 °C

## Cc1cc(NNC(=O)Nc2ccc(N(CCCl)CCCl)cc2)c2ccccc2n1
other
  melting point: 235 to 236 °C

## Cc1cc(Oc2ccc(NC(=O)Nc3ccc(N(CCCl)CCCl)cc3)cc2)c2cc3c(cc2n1)OCO3
other
  melting point: 217 to 218 °C

## Cc1cc(Oc2ccc(NC(=O)Oc3ccc(N(CCCl)CCCl)cc3)cc2)c2cc3c(cc2n1)OCO3
other
  melting point: 183 to 184 °C

## 1-{4-[Bis-(2-chloroethyl)amino]phenyl-3-[6-methoxy-2-(4-methoxyphenyl)quinolin-4-yl]urea [BO-1049]
[1]; doses and schedules as in Table 2 (30-150 mg/kg, i.v.)
  Tumor remission achieved: complete tumor remission
[1]
  log cell kill: > 4.1
  Duration complete remission maintained without relapse: over 70 days
[2]; [8]
  time after end of treatment at which tumor began to regrow: 6 days
  tumor-growth suppression: complete tumor-growth suppression
[2]; BO-1049 150, BO-1051 100, BO-1055 30 mg/kg vs cyclophosphamide 80 mg/kg, all Q2D×5, parallel study
  therapeutic effect compared with cyclophosphamide: superior therapeutic effects than cyclophosphamide
[3]
  IC50: 366 nM
[4]
  IC50: 1840 nM
[5]
  IC50: 3740 nM
CCRF-CEM/Taxol
  fold of cross-resistant, CCRF-CEM/Taxol vs IC50 of parent cell line: 1.6 x
  IC50: 587 nM

## OCc1cc(Nc2c3ccccc3nc3ccccc23)cc(OCCN(CCCl)CCCl)c1 [BO-0742]
[6]
  half-life in mice: about 25 min
[7]
  cytotoxicity relative to AHMA (times more cytotoxic): > 100 time

## COc1cc(N)cc(Nc2c3ccccc3nc3c(OCCN(CCCl)CCCl)cccc23)c1.Cl [BO-0940, N1-(4-{2-[bis(2-chloroethyl)-amino]-ethoxy}acridin-9-yl)-5-methoxybenzene-1,3-diamine hydrochloride]
[7]
  cytotoxicity relative to AHMA (times more cytotoxic): > 100 time

## CN(C)CCNC(=O)c1cccc(NC(=O)Nc2ccc(N(CCCl)CCCl)cc2)c1.Cl [BO-1055, 3-(3-{4-[Bis(2-chloroethyl)amino]phenyl}ureido)-N-(2-dimethylaminoethyl)benzamide hydrochloride]
[1]; 30 mg/kg, Q2D × 5, i.v.
  Maximal body-weight loss (%): 15%
[1]
  log cell kill: > 4.1
  Duration complete remission maintained without relapse: over 70 days
[2]; 30 mg/kg, Q2D×5, i.v.-injection
  time after end of treatment at which tumor began to regrow: 6 days
[3]
  IC50: 127 nM
[4]
  IC50: 551 nM
[5]
  IC50: 661 nM
CCRF-CEM/Taxol
  fold of cross-resistant, CCRF-CEM/Taxol vs IC50 of parent cell line: 15.4 x
  IC50: 1200 nM
